Test results published in publication PMC12655172, “Borylated 5-Membered Ring Iminosugars: Synthesis and Biological Evaluation for Glycosidase Inhibition and Anticancer Properties for Application in Boron Neutron Capture Therapy (BNCT)—Part 2” (Pharmaceuticals, 2025).
Entries after “also recorded” stand apart in the source; their conditions may differ.

Experiments:
Assay type in all cases: biochemical
[1] = tested on: T1, α-L-fucosidase (bovine kidney); assay: Glycosidase inhibition (Table 2 panel)
T1 construct: purchased Sigma-Aldrich; host or cells: bovine kidney
In short: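 Commercial enzymes assayed with para-nitrophenyl glycoside substrate […] at each enzyme's optimum pH, reaction stopped with Na2CO3 […]. Released para-nitrophenol read at 400 nm; […].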

[2] = tested on: N-acetyl-β-D-glucosaminidase (bovine kidney); assay: Glycosidase inhibition (Table 3 panel); conditions: 1 mg/mL aqueous solution; run in water
In short: (§1)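 Enzymes tested at 27 °C in citric acid/disodium hydrogen phosphate buffer at each enzyme's optimum pH, with 1 mg/mL aqueous extract and […] para-nitrophenyl substrate. Reactions stopped with 0.4 M glycine (pH 10.4) within the exponential phase; absorbance read at 405 nm, triplicate means.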

[3] = tested on: α-D-glucosidase (Bacillus); assay: Glycosidase inhibition (Table 3 panel); conditions: 1 mg/mL aqueous solution; run in water
In short: as §1

[4] = tested on: T2, α-D-mannosidase (Jack bean); assay: Glycosidase inhibition (Table 3 panel); conditions: 1 mg/mL aqueous solution; run in water
T2 construct: purchased Sigma-Aldrich; host or cells: Jack bean
In short: as §1

several glycosidases = assay: Glycosidase inhibition, whole Table 3 panel; conditions: Table 3 assay conditions
Experimental: All enzymes and para-nitrophenyl substrates were purchased from Sigma. Enzymes were assayed at 27 °C in citric acid (0.1 M)/disodium hydrogen phosphate (0.2 M) buffers at the optimum pH for the enzyme. The incubation mixture consisted of […] of 1 mg/mL aqueous solution of extract and […] of the appropriate […] para-nitrophenyl substrate made up in buffer at the optimum pH for the enzyme. The reactions were stopped by addition of […] 0.4 M glycine (pH 10.4) during the exponential phase of the reaction, which had been determined at the beginning using uninhibited assays in which water replaced the inhibitor. Final absorbances were read at 405 nm using a Versamax microplate reader (Molecular Devices, Wokingham, UK). Assays were carried out in triplicate, and the values given are means of the three replicates per assay. All reactions were run in water.

[5] = tested on: glycosidases in the panel; assay: Glycosidase inhibition, whole Table 2 panel
Source text: The enzymes α-D-glucosidase (yeast), β-D-glucosidases (almond, bovine liver), α-D-galactosidase (coffee beans), β-D-galactosidase (bovine liver), α-D-mannosidase (Jack bean), β-D-mannosidase (snail), α-L-rhamnosidase (P. decumbens), α-L-fucosidase (bovine kidney), trehalase (porcine kidney), β-D-glucuronidases (E. coli, bovine liver), amyloglucosidase (A. niger), para-nitrophenyl glycosides, and various disaccharides were purchased from Sigma-Aldrich Co (St. Louis, MO, USA).
Brush border membranes were prepared from the rat small intestine according to the method of Kessler et al., and were assayed at pH 6.8 for rat intestinal maltase using maltose. For rat intestinal maltase, porcine kidney trehalase, and A. niger amyloglucosidase activities, the reaction mixture contained maltose ([…]) and the appropriate amount of enzyme, and the incubations were performed for 10–30 min at 37 °C. The reaction was stopped by heating at 100 °C for 3 min. After centrifugation (600 g; 10 min), the resulting reaction mixture was added to the Glucose CII-test Wako (Wako Pure Chemical Ind., Osaka, Japan). The absorbance at 505 nm was measured to determine the amount of the released D-glucose. Other glycosidase activities were determined using an appropriate para-nitrophenyl glycoside as substrate at the optimum pH of each enzyme. The reaction mixture contained the substrate ([…]) and the appropriate amount of enzyme. The reaction was stopped by the addition of Na2CO3 ([…]). The released para-nitrophenol was measured spectrometrically at 400 nm. All reactions were run in […].

N[C@@H](Cc1ccc(B(O)O)cc1)C(=O)O [BPA, 4-borono-L-phenylalanine, reference compound]
inhibition % α-L-Fucosidase Bovine Kidney ([1]; at 100 μM): ^cNI ^d(0%) | Percentage inhibition N-Acetyl-β-D-glucosaminidase Bovine Kidney [2]: 6.7% | Percentage inhibition α-D-Glucosidase Bacillus [3]: 19.9% | Percentage inhibition α-D-Mannosidase Jack Bean [4]: 0.6% | Inhibition over the glycosidases of Table 3 (several glycosidases): < 30%

N[C@@H](Cc1ccc(B(O)O)cc1)C(=O)O [^10B-BPA, reference compound]
inhibition % α-L-Fucosidase Bovine Kidney ([1]; at 100 μM): ^cNI ^d(0%) | Percentage inhibition N-Acetyl-β-D-glucosaminidase Bovine Kidney [2]: 6.3% | Percentage inhibition α-D-Glucosidase Bacillus [3]: 19.5% | Percentage inhibition α-D-Mannosidase Jack Bean [4]: −0.7% | Inhibition over the glycosidases of Table 3 (several glycosidases): < 30%

CC1(C)O[C@H]2O[C@H]3[C@@H]([C@H]2O1)N(Cc1cccc(B2OC(C)(C)C(C)(C)O2)c1)C[C@H]3O [meta 2, N-(3-Methylphenylboronic acid pinacol ester)-3,6-dideoxy-3,6-imino-1,2-O-isopropylidene-α-D-gulofuranose]
inhibition % α-L-Fucosidase Bovine Kidney ([1]; at 1000 μM): ^aNI ^b(3.8%)

OB(O)c1cccc(CN2C[C@@H](O)[C@H]3OC(O)[C@H](O)[C@H]32)c1 (stereo partly drawn) [meta 3, N-(3-Methylphenylboronic acid)-3,6-dideoxy-3,6-imino-D-gulofuranose]
inhibition % α-L-Fucosidase Bovine Kidney ([1]; at 1000 μM): ^aNI ^b(3.8%)

OC[C@H](O)[C@@H]1[C@H](O)[C@H](O)CN1Cc1cccc(B(O)O)c1 [meta 4, N-(3-Methylphenylboronic acid)-1,4-dideoxy-1,4-imino-L-gulitol]
inhibition % α-L-Fucosidase Bovine Kidney ([1]; at 1000 μM): ^aNI ^b(3.0%)

CC1(C)O[C@H]2O[C@H]3[C@@H]([C@H]2O1)N(Cc1cccc(B(O)O)c1)C[C@H]3O [meta 5, N-(3-Methylphenylboronic acid)-3,6-dideoxy-3,6-imino-1,2-O-isopropylidene-α-D-glucofuranose]
Inhibitory activity over the glycosidase panel, in words [5]: abrogates inhibitory activity

CC1(C)O[C@H]2O[C@H]3[C@@H]([C@H]2O1)N(Cc1cccc(O)c1)C[C@H]3O [meta 6]
Inhibitory activity over the glycosidase panel, in words [5]: abrogates inhibitory activity

CC1(C)O[C@H]2O[C@H]3[C@@H]([C@H]2O1)N(Cc1ccccc1B1OC(C)(C)C(C)(C)O1)C[C@H]3O [ortho 2, N-(2-Methylphenylboronic acid pinacol ester)-3,6-dideoxy-3,6-imino-1,2-O-isopropylidene-α-D-gulofuranose]
inhibition % α-L-Fucosidase Bovine Kidney ([1]; at 1000 μM): ^aNI ^b(7.8%)

OB(O)c1ccccc1CN1C[C@@H](O)[C@H]2OC(O)[C@H](O)[C@H]21 (stereo partly drawn) [ortho 3, N-(2-Methylphenylboronic acid)-3,6-dideoxy-3,6-imino-D-gulofuranose]
inhibition % α-L-Fucosidase Bovine Kidney ([1]; at 1000 μM): ^aNI ^b(2.1%)

OC[C@H](O)[C@@H]1[C@H](O)[C@H](O)CN1Cc1ccccc1B(O)O [ortho 4, N-(2-Methylphenylboronic acid)-1,4-dideoxy-1,4-imino-L-gulitol]
inhibition % α-L-Fucosidase Bovine Kidney ([1]; at 1000 μM): ^aNI ^b(1.3%)

CC1(C)O[C@H]2O[C@H]3[C@@H]([C@H]2O1)N(Cc1ccccc1B(O)O)C[C@H]3O [ortho 5]
Inhibitory activity over the glycosidase panel, in words [5]: abrogates inhibitory activity

Borocaptate sodium [BSH, reference compound]
inhibition % α-L-Fucosidase Bovine Kidney ([1]; at 1000 μM): ^aNI ^b(0%) | Percentage inhibition N-Acetyl-β-D-glucosaminidase Bovine Kidney [2]: 37.1% | Percentage inhibition α-D-Glucosidase Bacillus [3]: 48.1% | Percentage inhibition α-D-Mannosidase Jack Bean [4]: −18.7% | Inhibition over the glycosidases of Table 3 (several glycosidases): 31.6–65.9%

N-(3-Hydroxyphenyl)-1,4-dideoxy-1,4-imino-L-gulitol [meta 7]
inhibition % α-L-Fucosidase Bovine Kidney ([1]; at 1000 μM): ^aNI ^b(2.1%) | Inhibitory activity over the glycosidase panel, in words [5]: complete abrogation of inhibition; also recorded: abrogation of biological activity
